Laboratory results from the NIST ThermoML archive (doi:10.1021/acs.jced.5b00784).
± gives the expanded uncertainty stated by the source.

Experiments:
[1] = Liquid, isochoric method
[2] = xn = mol fraction of the nth substance listed; settings: Liquid, Vibrating tube method, x2 = 0.377

Molecule `FC(C(F)(F)F)C(F)(F)F` [1,1,1,2,3,3,3-heptafluoropropane] has a mass density ([1]; 268.92 K, 1786 kPa) of 1509.3 ± 4.5 kg/m3, a mass density ([1]; 271.83 K, 3840 kPa) of 1508.5 ± 4.5 kg/m3 and a mass density ([1]; 274.3 K, 5598 kPa) of 1508.1 ± 4.5 kg/m3. It also gave a mass density ([1]; 277.7 K, 8059 kPa) of 1507.7 ± 4.5 kg/m3, a mass density ([1]; 279.51 K, 839 kPa) of 1466.6 ± 4.4 kg/m3 and a mass density ([1]; 280.8 K, 10284 kPa) of 1507.3 ± 4.5 kg/m3. The mass density ([1]; 281.32 K, 1993 kPa) was 1465.2 ± 4.4 kg/m3, the mass density ([1]; 283.42 K, 3331 kPa) was 1464.8 ± 4.4 kg/m3 and the mass density ([1]; 283.61 K, 12288 kPa) was 1507 ± 4.5 kg/m3. It also gave a mass density ([1]; 285.37 K, 4577 kPa) of 1464.6 ± 4.4 kg/m3, a mass density ([1]; 286.43 K, 1142 kPa) of 1441.9 ± 4.3 kg/m3 and a mass density ([1]; 286.67 K, 1203 kPa) of 1440.9 ± 4.3 kg/m3. It also gave a mass density ([1]; 286.7 K, 14495 kPa) of 1506.7 ± 4.5 kg/m3, a mass density ([1]; 287.36 K, 5848 kPa) of 1464.3 ± 4.4 kg/m3 and a mass density ([1]; 288.43 K, 2193 kPa) of 1440 ± 4.3 kg/m3. The mass density ([1]; 289.14 K, 2747 kPa) was 1440.7 ± 4.3 kg/m3, the mass density ([1]; 289.31 K, 16361 kPa) was 1506.4 ± 4.5 kg/m3 and the mass density ([1]; 289.41 K, 7162 kPa) was 1464.1 ± 4.4 kg/m3. The mass density ([1]; 290.44 K, 3367 kPa) was 1439.5 ± 4.3 kg/m3, the mass density ([1]; 291.46 K, 8474 kPa) was 1463 ± 4 kg/m3 and the mass density ([1]; 292 K, 4466 kPa) was 1440.2 ± 4.3 kg/m3. For the same molecule, the mass density ([1]; 292.45 K, 4875 kPa) was 1439.1 ± 4.3 kg/m3, the mass density ([1]; 293.4 K, 9717 kPa) was 1463.7 ± 4.4 kg/m3 and the mass density ([1]; 294.61 K, 5846 kPa) was 1438.9 ± 4.3 kg/m3. It also gave a mass density ([1]; 294.98 K, 6251 kPa) of 1439.8 ± 4.3 kg/m3, a mass density ([1]; 295.29 K, 10924 kPa) of 1463.5 ± 4.4 kg/m3 and a mass density ([1]; 296.72 K, 7101 kPa) of 1438 ± 4 kg/m3. For the same molecule, the mass density ([1]; 297.18 K, 12136 kPa) was 1463.3 ± 4.4 kg/m3, the mass density ([1]; 297.85 K, 7978 kPa) was 1439.5 ± 4.3 kg/m3 and the mass density ([1]; 298.7 K, 8273 kPa) was 1438.5 ± 4.3 kg/m3. For the same molecule, the mass density ([1]; 299.38 K, 13527 kPa) was 1463.1 ± 4.4 kg/m3, the mass density ([1]; 300.87 K, 9562 kPa) was 1438.2 ± 4.3 kg/m3 and the mass density ([1]; 300.89 K, 9788 kPa) was 1439.2 ± 4.3 kg/m3. For the same molecule, the mass density ([1]; 301.4 K, 14839 kPa) was 1462.9 ± 4.4 kg/m3, the mass density ([1]; 302.74 K, 10686 kPa) was 1438.1 ± 4.3 kg/m3 and the mass density ([1]; 302.94 K, 15829 kPa) was 1462.8 ± 4.4 kg/m3. For the same molecule, the mass density ([1]; 303.82 K, 11544 kPa) was 1438.9 ± 4.3 kg/m3, the mass density ([1]; 304.8 K, 11916 kPa) was 1437.9 ± 4.3 kg/m3 and the mass density ([1]; 306.88 K, 13381 kPa) was 1438.6 ± 4.3 kg/m3. It also gave a mass density ([1]; 306.95 K, 13205 kPa) of 1437.7 ± 4.3 kg/m3, a mass density ([1]; 309 K, 14427 kPa) of 1437.5 ± 4.3 kg/m3 and a mass density ([1]; 310.05 K, 15281 kPa) of 1438.3 ± 4.3 kg/m3. For the same molecule, the mass density ([1]; 311.05 K, 15654 kPa) was 1437.3 ± 4.3 kg/m3, the mass density ([1]; 312.85 K, 16727 kPa) was 1437.1 ± 4.3 kg/m3 and the mass density ([1]; 312.95 K, 17014 kPa) was 1438 ± 4.3 kg/m3.

In the case of `COC(F)(F)C(F)(C(F)(F)F)C(F)(F)F` [methyl nonafluoroisobutyl ether] + COC(F)(F)C(F)(F)C(F)(F)C(F)(F)F, the mass density ([2]; 275.02 K, 1984 kPa) is reported as 1579.6 ± 4.7 kg/m3, the mass density ([2]; 277.09 K, 3723 kPa) is reported as 1579.2 ± 4.7 kg/m3 and the mass density ([2]; 279.26 K, 5543 kPa) is reported as 1578.7 ± 4.8 kg/m3. The mass density ([2]; 279.43 K, 273 kPa) was 1564.5 ± 4.7 kg/m3, the mass density ([2]; 279.75 K, 524 kPa) was 1564.4 ± 4.7 kg/m3 and the mass density ([2]; 279.75 K, 527 kPa) was 1564.4 ± 4.7 kg/m3. For the same molecule, the mass density ([2]; 280.37 K, 972 kPa) was 1563.7 ± 4.7 kg/m3, the mass density ([2]; 280.46 K, 1101 kPa) was 1564.3 ± 4.7 kg/m3 and the mass density ([2]; 280.94 K, 1442 kPa) was 1564.2 ± 4.7 kg/m3. For the same molecule, the mass density ([2]; 281.34 K, 7289 kPa) was 1578.3 ± 4.8 kg/m3, the mass density ([2]; 281.55 K, 1942 kPa) was 1563.5 ± 4.7 kg/m3 and the mass density ([2]; 281.92 K, 2278 kPa) was 1564 ± 4.7 kg/m3. The mass density ([2]; 281.94 K, 2249 kPa) was 1564 ± 4.7 kg/m3, the mass density ([2]; 282.38 K, 2648 kPa) was 1563.9 ± 4.7 kg/m3 and the mass density ([2]; 283.21 K, 3315 kPa) was 1563.7 ± 4.7 kg/m3. The mass density ([2]; 283.5 K, 9101 kPa) was 1577.9 ± 4.8 kg/m3, the mass density ([2]; 283.65 K, 3673 kPa) was 1563.6 ± 4.7 kg/m3 and the mass density ([2]; 284.04 K, 3949 kPa) was 1563.6 ± 4.7 kg/m3. The mass density ([2]; 284.44 K, 4290 kPa) was 1563.5 ± 4.7 kg/m3, the mass density ([2]; 285.1 K, 4838 kPa) was 1563.3 ± 4.7 kg/m3 and the mass density ([2]; 285.42 K, 5083 kPa) was 1563.3 ± 4.7 kg/m3. It also gave a mass density ([2]; 285.49 K, 10769 kPa) of 1577.5 ± 4.8 kg/m3, a mass density ([2]; 285.94 K, 5471 kPa) of 1563.2 ± 4.7 kg/m3 and a mass density ([2]; 286.26 K, 5744 kPa) of 1563.1 ± 4.7 kg/m3. It also gave a mass density ([2]; 286.26 K, 5757 kPa) of 1563.1 ± 4.7 kg/m3, a mass density ([2]; 286.61 K, 5994 kPa) of 1562.5 ± 4.7 kg/m3 and a mass density ([2]; 286.95 K, 6330 kPa) of 1562.9 ± 4.7 kg/m3. The mass density ([2]; 287.26 K, 6535 kPa) was 1562.3 ± 4.7 kg/m3, the mass density ([2]; 287.54 K, 6765 kPa) was 1562.9 ± 4.7 kg/m3 and the mass density ([2]; 287.54 K, 6789 kPa) was 1562.9 ± 4.7 kg/m3. For the same molecule, the mass density ([2]; 287.59 K, 12510 kPa) was 1577.1 ± 4.8 kg/m3, the mass density ([2]; 287.68 K, 6872 kPa) was 1562.8 ± 4.7 kg/m3 and the mass density ([2]; 288.04 K, 7178 kPa) was 1562.8 ± 4.7 kg/m3. It also gave a mass density ([2]; 288.9 K, 7893 kPa) of 1562.5 ± 4.7 kg/m3, a mass density ([2]; 289.56 K, 14156 kPa) of 1576.7 ± 4.8 kg/m3 and a mass density ([2]; 289.6 K, 8425 kPa) of 1562.5 ± 4.7 kg/m3. The mass density ([2]; 289.6 K, 8448 kPa) was 1562.5 ± 4.7 kg/m3, the mass density ([2]; 289.6 K, 8462 kPa) was 1562.2 ± 4.7 kg/m3 and the mass density ([2]; 289.72 K, 8502 kPa) was 1562.4 ± 4.7 kg/m3. For the same molecule, the mass density ([2]; 291.62 K, 15869 kPa) was 1576.2 ± 4.8 kg/m3, the mass density ([2]; 291.67 K, 10052 kPa) was 1562 ± 4.7 kg/m3 and the mass density ([2]; 291.67 K, 10070 kPa) was 1562 ± 4.7 kg/m3. For the same molecule, the mass density ([2]; 291.67 K, 10101 kPa) was 1562 ± 4.7 kg/m3, the mass density ([2]; 292.61 K, 10815 kPa) was 1561.9 ± 4.7 kg/m3 and the mass density ([2]; 292.7 K, 10872 kPa) was 1561.2 ± 4.7 kg/m3. For the same molecule, the mass density ([2]; 293.44 K, 11481 kPa) was 1561.7 ± 4.7 kg/m3, the mass density ([2]; 293.52 K, 17446 kPa) was 1575.9 ± 4.8 kg/m3 and the mass density ([2]; 294.31 K, 12183 kPa) was 1561.5 ± 4.7 kg/m3. It also gave a mass density ([2]; 295.32 K, 12982 kPa) of 1561.3 ± 4.7 kg/m3, a mass density ([2]; 295.59 K, 19153 kPa) of 1575.4 ± 4.8 kg/m3 and a mass density ([2]; 296.29 K, 13751 kPa) of 1561.1 ± 4.7 kg/m3. The mass density ([2]; 298.57 K, 15560 kPa) was 1560.7 ± 4.7 kg/m3, the mass density ([2]; 299.64 K, 16411 kPa) was 1560.5 ± 4.7 kg/m3 and the mass density ([2]; 300.65 K, 17215 kPa) was 1560.3 ± 4.7 kg/m3. The mass density ([2]; 301.34 K, 17761 kPa) was 1560.1 ± 4.7 kg/m3, the mass density ([2]; 302.6 K, 18751 kPa) was 1559.9 ± 4.7 kg/m3 and the mass density ([2]; 302.6 K, 18786 kPa) was 1559.9 ± 4.7 kg/m3.
